The text below walks through data of ChEMBL document CHEMBL5223188, “Discovery of OICR12694: A Novel, Potent, Selective, and Orally Bioavailable BCL6 BTB Inhibitor” (ACS Med Chem Lett, 2023).

The share remaining is the share of the starting amount still present when the sample was taken. A higher share remaining goes with greater stability. In general, Papp A→B refers to how fast a substance crosses the layer from the apical side. High values mean ready permeation, low ones poor permeation.

Data set [1] in a line: in vitro. As to conditions: human, liver microsomes. A general note: Liver microsomes are vesicles of endoplasmic reticulum, rich in cytochrome P450 enzymes.
A short description of data set [2]: in vitro. As to conditions: mouse, liver microsomes.
A short description of data set [3]: in vitro. As to conditions: human, Caco-2.

In the case of `C[C@@H]1COCCN1c1cc(NC(=O)Cn2cc(-c3cc(Cl)c(O)c(C(N)=O)c3)c3c(=O)n(C)cnc32)c(Cl)cn1`, the amount remaining at 1 h in the data set “in vitro [1]” amounted to 55%; in the data set “in vitro [2]” it was 36%. Also, the Papp A→B in the data set “in vitro [3]” is 3 ×10⁻⁶ cm/s.

On to `Cc1nc2c(c(-c3cc(C(N)=O)c(O)c(F)c3F)cn2CC(=O)Nc2cc(N3CCN(C)C[C@@H]3C)ncc2Cl)c(=O)n1C`, for which the results for the share remaining at 1 h in “in vitro [1]” and in “in vitro [2]” were 73% and 65%, respectively. This compound yielded a Papp A→B in “in vitro [3]” of 4.4 ×10⁻⁶ cm/s.

`C[C@H]1CN(C)CCN1c1cc(NC(=O)Cn2cc(-c3cc(F)c(O)c(C(N)=O)c3)c3c(=O)n(C)cnc32)c(Cl)cn1`: the values for the fraction remaining at 1 h in “in vitro [1]” and in “in vitro [2]” were 62% and 49%, respectively. The compound further came in with a Papp A→B in the data set “in vitro [3]” of 0.5 ×10⁻⁶ cm/s.

As for `C[C@H]1CN(C)CCN1c1cc(NC(=O)Cn2cc(-c3cc(F)c(O)c(C(N)=O)c3F)c3c(=O)n(C)cnc32)c(Cl)c(F)n1`, the fraction remaining at 1 h in the data set “in vitro [1]” stood at 16%; in “in vitro [2]”, 43%. This compound also had a Papp A→B in the data set “in vitro [3]” of 2.8 ×10⁻⁶ cm/s.

For `C[C@H]1COCCN1c1cc(NC(=O)Cn2cc(-c3cc(Cl)c(O)c(C(N)=O)c3)c3c(=O)n(C)cnc32)c(Cl)cn1`, the amount remaining at 1 h amounted to 27% in the data set “in vitro [1]” and 63% in the data set “in vitro [2]”. Besides, the Papp A→B in “in vitro [3]” came out at 3.6 ×10⁻⁶ cm/s.
